The values that follow come from patent US8789785B2, “Device for micronization of solid materials and its use” (Lambano Trading Limited, priority 2010, dated 2014).

Structures are written as SMILES.

The data set in a line: bioavailability of the substance micronized with the device. In kind it is in vivo. The note with it: after micronization with the device from the present invention. The text has this:
As an example of pharmaceutically active substance herein is mentioned anti-inflammatory substance alclometasone-17,21-dipropionate which was successfully micronized with the device from the present invention yielding the product of increased bioavailability.

Take `CCC(=O)OCC(=O)[C@@]1(OC(=O)CC)[C@H](C)C[C@H]2[C@H]3[C@H]([C@@H](O)C[C@@]21C)[C@@]1(C)C=CC(=O)C=C1C[C@H]3Cl` [alclometasone-17,21-dipropionate]: the “bioavailability of the micronized product” value was “increased”.
